The results in this text go back to BindingDB's records for patent US11306081 (Bristol Myers Squibb, 2022).

The assay addresses Rho-associated protein kinase 2 (Homo sapiens, UniProt O75116). In words: In Vitro Assay. The method, then: The effectiveness of compounds of the present invention as ROCK inhibitors can be determined in a 30 μL assay containing 20 mM HEPES, pH 7.5, 20 mM MgCl2, 0.015% Brij-35, 4 mM DTT, 5 μM ATP and 1.5 μM peptide substrate (FITC-AHA-AKRRRLSSLRA-OH) (SEQ ID No. 1). Compounds were dissolved in DMSO so that the final concentration of DMSO was <2%, and the reaction was initiated with Rho kinase variants. After incubation, the reaction was terminated by the addition of EDTA and the phosphorylated and non-phosphorylated peptides separated using a LABCHIP 3000 Reader (Caliper Life Sciences). […] Compounds were tested in dose-response format, and the inhibition of kinase activity was calculated at each concentration of compound. The inhibition data were fit using a curve-fitting program to determine the IC50; i.e., the concentration of compound required to inhibit 50% of kinase activity.

Sequence of Rho-associated protein kinase 2 (O75116 whole entry): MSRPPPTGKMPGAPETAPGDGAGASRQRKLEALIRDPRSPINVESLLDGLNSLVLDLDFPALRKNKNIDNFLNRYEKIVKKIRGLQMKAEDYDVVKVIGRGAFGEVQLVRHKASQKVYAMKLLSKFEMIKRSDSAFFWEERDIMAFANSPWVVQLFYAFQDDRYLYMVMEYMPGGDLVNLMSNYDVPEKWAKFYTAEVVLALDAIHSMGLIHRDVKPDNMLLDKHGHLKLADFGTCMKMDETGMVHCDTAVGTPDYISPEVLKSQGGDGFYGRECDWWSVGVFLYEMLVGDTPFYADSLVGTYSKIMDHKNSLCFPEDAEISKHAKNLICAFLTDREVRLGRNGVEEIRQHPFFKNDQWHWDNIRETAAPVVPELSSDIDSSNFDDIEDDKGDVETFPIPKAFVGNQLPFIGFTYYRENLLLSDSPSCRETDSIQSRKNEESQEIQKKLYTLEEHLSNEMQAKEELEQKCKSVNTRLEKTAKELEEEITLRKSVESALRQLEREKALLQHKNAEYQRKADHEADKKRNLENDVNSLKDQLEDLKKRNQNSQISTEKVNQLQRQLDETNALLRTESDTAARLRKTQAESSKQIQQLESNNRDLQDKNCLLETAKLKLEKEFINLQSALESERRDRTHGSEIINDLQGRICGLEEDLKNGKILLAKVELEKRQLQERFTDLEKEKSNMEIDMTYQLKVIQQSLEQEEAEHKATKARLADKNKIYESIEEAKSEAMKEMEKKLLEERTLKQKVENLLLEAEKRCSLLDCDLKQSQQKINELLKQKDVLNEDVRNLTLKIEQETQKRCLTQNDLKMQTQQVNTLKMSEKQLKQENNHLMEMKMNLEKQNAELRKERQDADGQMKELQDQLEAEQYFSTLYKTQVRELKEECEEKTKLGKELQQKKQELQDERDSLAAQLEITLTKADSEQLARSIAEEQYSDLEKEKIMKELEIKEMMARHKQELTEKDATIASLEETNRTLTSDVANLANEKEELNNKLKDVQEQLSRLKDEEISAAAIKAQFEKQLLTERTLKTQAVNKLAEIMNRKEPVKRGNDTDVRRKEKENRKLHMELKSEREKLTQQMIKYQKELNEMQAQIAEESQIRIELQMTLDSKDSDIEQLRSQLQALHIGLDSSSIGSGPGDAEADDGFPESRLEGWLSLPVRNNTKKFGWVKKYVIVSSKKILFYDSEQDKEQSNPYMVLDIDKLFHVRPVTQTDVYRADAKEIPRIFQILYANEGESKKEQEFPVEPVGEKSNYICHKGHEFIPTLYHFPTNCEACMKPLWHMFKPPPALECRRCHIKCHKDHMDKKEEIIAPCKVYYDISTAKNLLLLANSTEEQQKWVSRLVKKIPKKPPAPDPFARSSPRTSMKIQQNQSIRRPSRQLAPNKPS

One may read the IC50 as the concentration at which inhibition is half-maximal. A high value points to weaker potency. The compound `COc1ccc2sc(NC(=O)Cc3ccc(Oc4ncccc4C(N)=O)c(Cl)c3)nc2c1` [US11306081, Example 115] registered an IC50 of 8 nM.
